Laboratory results published in ChEMBL document CHEMBL5728694, “Inhibitors of hepatitis C virus replication” (2021).

Test: Measuring Compound Inhibitory Potency: Measurement of inhibition by compounds was performed using the HCV replicon system. Several different replicons encoding different HCV genotypes or mutations were used. In addition, potency measurements were made using different formats of the replicon assay, including different ways of measurements and different plating formats. See Jan M. Vrolijk et al., A replicons-based bioassay for the measurement of interferons in patients with chronic hepatitis C, 110 J. VIROLOGICAL METHODS 201 (2003); Steven S. Carroll et al., Inhibition of Hepatitis C Virus RNA Replication by 2′-Modified Nucleoside Analogs, 278(14) J. BIOLOGICAL CHEMISTRY 11979 (2003). However, the underlying principles are common to all of these determinations, and are outlined below.Stable neomycin phosphotransferase encoding replicon-harboring cell lines were used, so all cell lines were maintained under G418 selection prior to the assay. In some cases, the cell lines encoded a luciferase:Neor fusion and could be assayed either directly by determination of RNA copy number, or indirectly through measurement of the luciferase activity.To initiate an assay, replicon cells were plated in the presence of a dilution series of test compound in the absence of G418. Typically, the assays were performed in a 96-well plate format for manual operation, or a 384-well plate in an automated assay. […]

`COC(=O)N[C@H](C(=O)N1CCC[C@H]1c1ncc(-c2ccc3oc(-c4ccc(-c5cnc([C@@H]6CCCN6C(=O)[C@@H](NC(=O)OC)C(C)C)[nH]5)c(F)c4)cc3c2)[nH]1)C(C)C` gave an EC50 of 4 pM.
